The values below come from patent US7148246B2, “Cycloalkyl derivatives having bioisosteric carboxylic acid groups, processes for their preparation and their use as pharmaceuticals” (Sanofi-Aventis Deutschland GmbH, priority 2003, dated 2006).

SMILES strings stand for the structures.

The term EC50 denotes the concentration needed to bring the measured effect to its halfway point. A lower EC50 goes with a more potent agent.

This assay concerns the target T1, human PPARalpha (Homo sapiens, UniProt Q07869).
T1 construct: amino acids S167–Y468; expressed in transfected cells; host or cells: HEK (human embryo kidney) cells, stably transfected with pcDNA3 carrying the fusion construct
T1 sequence (Q07869 167-468): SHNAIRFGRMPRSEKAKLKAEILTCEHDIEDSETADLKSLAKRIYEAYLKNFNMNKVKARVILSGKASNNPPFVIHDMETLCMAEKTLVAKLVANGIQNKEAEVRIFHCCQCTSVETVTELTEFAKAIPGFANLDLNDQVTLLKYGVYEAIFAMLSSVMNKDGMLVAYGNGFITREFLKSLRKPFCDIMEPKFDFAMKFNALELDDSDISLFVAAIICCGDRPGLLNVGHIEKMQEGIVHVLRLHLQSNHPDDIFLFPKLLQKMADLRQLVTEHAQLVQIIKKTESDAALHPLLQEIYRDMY
Put plainly: Cellular PPARalpha assay (stably transfected HEK luciferase reporter cell line). It counts as cell-based. Conditions: PPARalpha reporter cell line (HEK, GR-GAL4-humanPPARalpha-LBD), luciferase readout. Here is the method:
Determination of EC50 Values of PPAR Agonists in the Cellular PPARalpha Assay
The potency of substances which bind to human PPARalpha and activate in an agonistic manner is analyzed using a stably transfected HEK cell line (HEK=human embryo kidney) which is referred to here as PPARalpha reporter cell line. It contains two genetic elements, a luciferase reporter element (pdeltaM-GAL4-Luc-Zeo) and a PPARalpha fusion protein (GR-GAL4-humanPPARalpha-LBD) which mediates expression of the luciferase reporter element depending on a PPARalpha ligand. The stably and constitutively expressed fusion protein GR-GAL4-humanPPARalpha-LBD binds in the cell nucleus of the PPARalpha reporter cell line via the GAL4 protein portion to the GAL4 DNA binding motifs 5′-upstream of the luciferase reporter element which is integrated in the genome of the cell line. There is only little expression of the luciferase reporter gene without addition of a PPARalpha ligand if fatty acid-depleted fetal calf serum (cs-FCS) is used in the assay. PPARalpha ligands bind and activate the PPARalpha fusion protein and thereby bring about expression of the luciferase reporter gene. The luciferase which is formed can be detected by means of chemiluminescence via an appropriate substrate.
The PPARalpha reporter cell line was prepared in 2 stages. Firstly, the luciferase reporter element was constructed and stably transfected into HEK cells. For this purpose, five binding sites of the yeast transcription factor GAL4 (each 5′-CGGAGTACTGTCCTCCGAG-3′) (SEQ ID No.1) were cloned in 5′-upstream of a 68 bp-long minimal MMTV promoter (Genbank Accession #V01175). The minimal MMTV promoter section contains a […] and a TATA element in order to enable efficient transcription by RNA polymerase II. The cloning and sequencing of the GAL4-MMTV construct took place in analogy to the description of Sambrook J. et. al. (Molecular cloning, Cold Spring Harbor Laboratory Press, 1989). Then the complete Photinus pyralis gene (Genbank Accession #M15077) was cloned in 3′-downstream of the GAL4-MMTV element. After sequencing, the luceriferase reporter element consisting of five GAL4 binding sites, MMTV promoter and luciferase gene was recloned into a plasmid which confers zeocin resistance in order to obtain the plasmid pdeltaM-GAL4-Luc-Zeo. This vector was transfected into HEK cells in accordance with the statements in Ausubel, F. M. et al. (Current protocols in molecular biology, Vol. 1–3, John Wiley & Sons, Inc., 1995). […] In a second step, the PPARalpha fusion protein (GR-GAL4-humanPPARalpha-LBD was introduced into the stable cell clone described. For this purpose, initially the cDNA coding for the N-terminal 76 amino acids of the glucocorticoid receptor (Genbank Accession #P04150) was linked to the cDNA section coding for amino acids 1–147 of the yeast transcription factor GAL4 (Genbank Accession #P04386). The cDNA of the ligand-binding domain of the human PPARalpha receptor (amino acids S167–Y468; Genbank Accession #S74349) was cloned in at the 3′-end of this GR-GAL4 construct. The fusion construct prepared in this way (GR-GAL4-humanPPARalpha-LBD) was recloned into the plasmid pcDNA3 (from Invitrogen) in order to enable constitutive expression therein by the cytomegalovirus promoter. This plasmid was linearized with a restriction endonuclease and stably transfected into the previously described cell clone containing the luciferase reporter element. The finished PPARalpha reporter cell line which contains a luciferase reporter element and constitutively expresses the PPARalpha fusion protein (GR-GAL4-human PPARalpha-LBD) was isolated by selection with zeocin (0.5 mg/ml) and G418 (0.5 mg/ml).
The activity of PPARalpha agonists is determined in a 3-day assay which is described below: […]
(In a reporter assay the amount or activity of a reporter protein is the signal.)
In the case of `Cc1ccc(-c2nc(CO[C@@H]3CCC[C@H](/C=C4/SC(=O)NC4=O)C3)c(C)o2)cc1` (racemic) [Example XXXIV, 5-[1-[cis-3-(5-Methyl-2-tolyloxazol-4-ylmethoxy)cyclohexyl]methylidene]-thiazolidine-2,4-dione], the EC50 worked out at 114 nM.

For the compound `Cc1oc(-c2ccc(F)cc2)nc1COC1CCCC(OC/C=C2\NC(=O)NC2=O)C1` (racemic) [XXIV, 5-[2-{cis-3-[2-(4-Fluorophenyl)-5-methyloxazol-4-ylmethoxy]cyclohexyloxy}-ethylidene]imidazolidine-2,4-dione], the EC50 is 227 nM. `Cc1oc(-c2ccc(F)cc2)nc1CO[C@@H]1CCC[C@H](OS(=O)(=O)c2cc([N+](=O)[O-])ccc2Cl)C1` (relative stereo) [Example XX, cis-3-[2-(4-fluorophenyl)-5-methyloxazol-4-ylmethoxy]cyclohexyl 2-chloro-5-nitrobenzenesulfonate] registered a 50% effective concentration (EC50) of 1930 nM. The compound `COc1ccc(S(=O)(=O)O[C@H]2CCC[C@@H](OCc3nc(-c4ccc(F)cc4)oc3C)C2)c([N+](=O)[O-])c1` (relative stereo) [Example XXI, cis-3-[2-(4-fluorophenyl)-5-methyloxazol-4-ylmethoxy]cyclohexyl 4-methoxy-2-nitrobenzenesulfonate] displayed an EC50 of 1250 nM.

The compound `Cc1oc(-c2ccc(F)cc2)nc1CO[C@@H]1CCC[C@H](OCCC2SC(=O)NC2=O)C1` (relative stereo) [Example XXVI, 5-(2-{cis-3-[2-(4-Fluorophenyl)-5-methyloxazol-4-ylmethoxy]cyclohexyloxy}-ethyl)thiazolidine-2,4-dione] gave an EC50 of 709 nM.

The compound `Cc1oc(-c2ccc(F)cc2)nc1CO[C@H]1CCC[C@@H](OCc2cccc([N+](=O)[O-])c2)C1` (relative stereo) [VIII, 2-(4-Fluorophenyl)-5-methyl4-[cis-3-(3-nitrobenzyloxy)cyclohexyloxy-methyl]oxazole] had an EC50 of 91 nM.

As for `Cc1cccc(-c2nc(COC3CCCC(OCCC4SC(=O)NC4=O)C3)c(C)o2)c1` (stereo not drawn) [Example XXVII, 5-{2-[(cis-3-(5-Methyl-2-tolyloxazol-4-ylmethoxy)cyclohexyloxy]ethyl}thiazolidine-2,4-dione], the EC50 is 726 nM. For the compound `Cc1ccc(-c2nc(COC3CCCC(CC4SC(=O)NC4=O)C3)c(C)o2)cc1` (stereo not drawn) [XXXV, 5-[cis-3-(5-Methyl-2-tolyloxazol-4-ylmethoxy)cyclohexylmethyl]thiazolidine-2,4-dione], the EC50 amounted to 187 nM.
